Starred links: 1 amine or outer side, 2 acyl side, 3 side chain; linkers in the order of their positions; H or OH if unused. Residues, ends and D or L forms follow the SMILES beside them. Groups on a side chain read outwards from the residue. *: point of attachment. C18 diacid = O=C(O)CCCCCCCCCCCCCCCCC(=O)*; γGlu = O=C(O)[C@H](CCC(=O)[*:2])N[*:1]

The values below come from patent US12116388B2, “Amylin receptor agonists” (Novo Nordisk A/S, priority 2022, dated 2024).

The assay deals with Sprague Dawley (SD) rats. Nature of the assay: Acute food intake in ad libitum fed rat model. The note with it: single s.c. administration, negative value = reduced food intake. Format: in vivo. As for the experimental part: Lyophilised compound was dissolved in vehicle, 8 mM phosphate, 250 mM glycerol, 0.007% polysorbate 20, and pH was adjusted to 7.4 with 1N NaOH.
Normal weight Sprague Dawley (SD) rats from Taconic Europe, Denmark, were used for the acute food intake studies. The purpose of these studies was to test in vivo effect on food intake and to provide an indication of the compounds' duration of action. Experiments were conducted with permission from the Danish Animal Experiments Inspectorate and were performed in accordance with the guidelines of the Danish legislation governing animal experimentation (1987) as well as the National Institutes of Health (publication number 85-23) and the European Convention for the Protection of Vertebrate Animals used for Experimental and other Scientific Purposes (Council of Europe No 123, Strasbourg 1985).
Prior to study start, rats were acclimatized to the experimental settings for 14 days. During this period, the animals were handled at least 2 times. Immediately upon arrival, rats were put on a reversed light cycle (dark from 10 am-10 pm or 11 am-11 pm) and were transferred into one of three following food intake measuring systems: FeedWin, BioDaq or HM2. Rats were single housed in the FeedWin and BioDaq system and were housed three a cage in the HM2 system (rats were in this case ID-chipped). During the acclimatization period, in which the rats get used to the new light cycle and diet, the animals had free access to food and water. […] Each amylin analogue was tested in a group of 5-6 rats. A vehicle group of 5-6 rats was included in each experiment and were used as reference point. […] The time of dosing was recorded for each rat.
After dosing, rats were returned to their home cages, where they had access to food and water. Food consumption was recorded individually and continuously by on-line registration for up to 72 h post dosing. At the end of the experiment, body weight was measured again, and animals were euthanized by CO2 overdose.

As to `CC[C@H](C)[C@H](NC(=O)[C@H](CCCCNC(=O)CC[C@H](NC(=O)CCCCCCCCCCCCCCCCC(=O)O)C(=O)O)NC(=O)CNC(=O)[C@H](Cc1ccccc1)NC(=O)[C@H](CC(N)=O)NC(=O)[C@H](CC(=O)O)NC(=O)[C@H](CO)NC(=O)[C@H](CO)NC(=O)[C@H](Cc1c[nH]cn1)NC(=O)[C@H](Cc1c[nH]cn1)NC(=O)[C@H](CC(C)C)NC(=O)[C@H](Cc1ccccc1)NC(=O)[C@H](CCC(=O)O)NC(=O)[C@H](C)NC(=O)[C@H](CC(C)C)NC(=O)[C@H](CCCNC(=N)N)NC(=O)[C@H](C)NC(=O)[C@@H](NC(=O)[C@H](CCC(N)=O)NC(=O)[C@H](C)NC(=O)[C@@H](NC(=O)[C@H](CO)NC(=O)[C@H](CC(C)C)NC(=O)[C@H](Cc1c[nH]cn1)NC(=O)[C@H](CO)NC(=O)[C@H](C)NC(C)=O)[C@@H](C)O)[C@@H](C)O)C(=O)N[C@@H](CC(C)C)C(=O)N1CCC[C@H]1C(=O)N1CCC[C@H]1C(=O)N[C@H](C(=O)N[C@@H](CC(=O)O)C(=O)N[C@H](C(=O)NCC(=O)N[C@@H](CO)C(=O)N[C@@H](CC(N)=O)C(=O)N[C@H](C(=O)N1CCC[C@H]1C(N)=O)[C@@H](C)O)C(C)C)[C@@H](C)O` [Compound 41, N^1-acetyl,N{Epsilon-25}-[(4S)-4-carboxy-4-(17-carboxyheptadecanoylamino)butanoyl]-[Ala1,Ser2,His3,Leu4,Ser5,Ala7,Gln8,Ala10,Glu14,His17,Asp21,Lys25,Pro28,Pro29,Asp31,Pro37]-human amylin] (Ac-ASHLSTAQTARLAEFLHHSSDNFGK([γGlu-C18 diacid])ILPPTDVGSNTP-NH2), the “Food intake relative to vehicle (%) 0-24 hr, 3 nmol/kg” value (0-24 hr) is −88%. Besides, the “Food intake relative to vehicle (%) 24-48 hr, 3 nmol/kg” value (24-48 hr) is listed as −76%. In addition, the “Food intake relative to vehicle (%) 48-72 hr, 3 nmol/kg” value (48-72 hr) is given as −15%.
